Legend:
[1] = target: T1, Serine/threonine-protein kinase Chk1 (Homo sapiens, UniProt O14757); experiment: Inhibition of recombinant His-CHK1 expressed in baculovirus after 2 hrs by scintillation proximity assay
T1 sequence (O14757 whole entry): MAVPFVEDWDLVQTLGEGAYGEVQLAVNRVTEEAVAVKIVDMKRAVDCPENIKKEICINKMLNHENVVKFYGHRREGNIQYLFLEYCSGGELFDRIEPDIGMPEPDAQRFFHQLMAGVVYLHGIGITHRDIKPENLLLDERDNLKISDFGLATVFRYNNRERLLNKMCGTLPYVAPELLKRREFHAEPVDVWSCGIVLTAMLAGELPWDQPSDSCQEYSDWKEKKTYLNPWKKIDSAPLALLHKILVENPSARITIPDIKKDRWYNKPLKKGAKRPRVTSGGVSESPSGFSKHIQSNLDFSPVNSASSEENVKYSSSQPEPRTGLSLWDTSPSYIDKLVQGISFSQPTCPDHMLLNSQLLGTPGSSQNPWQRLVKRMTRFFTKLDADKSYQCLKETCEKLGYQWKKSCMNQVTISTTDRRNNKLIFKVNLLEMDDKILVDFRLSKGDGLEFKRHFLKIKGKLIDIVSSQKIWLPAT

[2] = target: Cyclin-dependent kinase 2/cyclin A (Homo sapiens, UniProt P24941); experiment: Inhibition of CDK2/cyclin A; assay type: protein-complex assay
[3] = Selectivity ratio, ratio of IC50 for CDK2/cyclin A to IC50 for recombinant His-CHK1

Structure (SMILES)	IC50 [1] [nM]	IC50 [2] [nM]	Ratio IC50 [3]
Nc1cc(C2CCCNC2)nc2c(-c3cscn3)cnn12 (configuration not stated)	> 50000	–	–
Nc1cc(C2CCCNC2)nc2c(-c3cncnc3)cnn12 (configuration not stated)	280	5400	–
N#Cc1cnn2c(N)cc(C3CCCNC3)nc12 (configuration not stated)	2100	810	–
Cn1cc(-c2cnn3c(NC(C)(C)C)cc(C4CCCNC4)nc23)cn1 (configuration not stated)	5000	> 50000	–
Cc1cc(Nc2cc(C3CCCNC3)nc3c(-c4cnn(C)c4)cnn23)sn1 (configuration not stated)	–	40000	–
Cn1cc(-c2cnn3c(N)cc(C4CCCNC4)nc23)cn1 (configuration not stated)	60	6100	100
Cn1cc(-c2cnn3c(Nc4nccs4)cc(C4CCCNC4)nc23)cn1 (configuration not stated)	28	> 50000	–
CCc1cnn2c(N)cc(C3CCCNC3)nc12 (configuration not stated)	9400	270	–
Cn1cc(-c2cnn3c(NCc4cccnc4)cc(C4CCCNC4)nc23)cn1 (configuration not stated)	410	> 50000	–
Nc1cc(-c2ccccc2)nc2c(Br)cnn12	2900	250	–
C/C=C/c1cnn2c(N)cc(C3CCCNC3)nc12 (configuration not stated)	5100	710	–
Cn1cc(-c2cnn3c(Nc4ccccn4)cc(C4CCCNC4)nc23)cn1 (configuration not stated)	28	> 50000	–
CNc1cc(C2CCCNC2)nc2c(-c3cnn(C)c3)cnn12 (configuration not stated)	140	> 50000	–
Nc1cc(C2CCCNC2)nc2c(-c3cnccn3)cnn12 (configuration not stated)	290	1200	–
Cn1cc(-c2cnn3c(NCCO)cc(C4CCCNC4)nc23)cn1 (configuration not stated)	860	> 50000	–
Nc1cc(C2CCCNC2)nc2c(Br)cnn12 (configuration not stated)	1080	86	–
Nc1cc(C2CCCNC2)nc2c(-c3ccccc3)cnn12 (configuration not stated)	4500	4600	–
Nc1cc(C2CCCNC2)nc2c(-c3ccoc3)cnn12 (configuration not stated)	820	–	–
CCOC(=O)c1ccc(Nc2cc(C3CCCNC3)nc3c(-c4cnn(C)c4)cnn23)cc1 (configuration not stated)	51	> 50000	–
Cc1nc2cc(Nc3cc(C4CCCNC4)nc4c(-c5cnn(C)c5)cnn34)ccc2s1 (configuration not stated)	610	> 50000	–

Structure (SMILES)	IC50 [1] [nM]	IC50 [2] [nM]	Ratio IC50 [3]
CCNc1cc(C2CCCNC2)nc2c(-c3cnn(C)c3)cnn12 (configuration not stated)	480	> 50000	–
[O-][n+]1cccc(CNc2cc(-c3ccccc3F)nc3c(Br)cnn23)c1	> 50000	13	–
Cn1cc(-c2cnn3c(NC4CCCCC4)cc(C4CCCNC4)nc23)cn1 (configuration not stated)	1500	> 50000	–
Nc1cc(C2CCCNC2)nc2c(-c3ccn[nH]3)cnn12 (configuration not stated)	2000	2200	–
Cc1cc(Nc2cc(C3CCCNC3)nc3c(-c4cnn(C)c4)cnn23)no1 (configuration not stated)	21	> 50000	–
Nc1cc(C2CCCNC2)nc2c(-c3cccc(O)c3)cnn12 (configuration not stated)	1700	640	–
Nc1cc(C2CCCNC2)nc2c(-c3ccsc3)cnn12 (configuration not stated)	1100	590	–
Cn1cc(-c2cnn3c(Nc4ccc5c(c4)OCO5)cc(C4CCCNC4)nc23)cn1 (configuration not stated)	390	> 50000	–
Nc1cc(C2CCCNC2)nc2c(-c3cccnc3)cnn12 (configuration not stated)	540	–	–
Cn1cc(-c2cnn3c(NC4CCNCC4)cc(C4CCCNC4)nc23)cn1 (configuration not stated)	6800	> 50000	–
Nc1cc(C2CCCNC2)nc2c(-c3ccns3)cnn12 (configuration not stated)	70	790	–
Nc1cc(C2CCCNC2)nc2ccnn12 (configuration not stated)	36000	7800	–
Nc1cc(C2CCCNC2)nc2c(-c3cccs3)cnn12 (configuration not stated)	1300	690	–
CC#Cc1cnn2c(N)cc(C3CCCNC3)nc12 (configuration not stated)	18000	80	–
Cn1cc(-c2cnn3c(Nc4nncs4)cc(C4CCCNC4)nc23)cn1 (configuration not stated)	2200	> 50000	–
CCn1nccc1Nc1cc(C2CCCNC2)nc2c(-c3cnn(C)c3)cnn12 (configuration not stated)	34000	–	–
Cn1cc(-c2cnn3c(Nc4ccccc4)cc(C4CCCNC4)nc23)cn1 (configuration not stated)	87	> 50000	–
Cn1cc(-c2cnn3c(NCc4ccccc4)cc(C4CCCNC4)nc23)cn1 (configuration not stated)	1000	–	–
CCOC(=O)c1cnn2c(N)cc(C3CCCNC3)nc12 (configuration not stated)	> 50000	–	–

From ChEMBL document CHEMBL1641420, “Discovery of pyrazolo[1,5-a]pyrimidine-based CHK1 inhibitors: a template-based approach--part 1” (Bioorg Med Chem Lett, 2011)
